Laboratory results as given in US9056886B2, “Guanosine-rich modified oligonucleotides and antiproliferative activity thereof” (APTABIO THERAPEUTICS INC., priority 2009, dated 2015).
pIC50: −log10 of the molar value. [5FU] = 5-fluoro-uracil base (5-fluoro-2'-deoxyuridine)

Assays:
[1] = test system: PC-3 cell line (prostate cancer cell); assay: Cell apoptosis (XTT method) in PC-3 cells; type: cell-based; conditions: for pIC50: PC3 (Prostate Cancer Cells), cultured six days, XTT
Procedure: (§1) Each oligonucleotide was diluted in 10 mM Tris-HCl (pH 7.4) to a final concentration of 100 μM. The diluted solution was placed at 94° C. for 5 minutes and then quickly placed them on ice and left therein for 5 minutes. The resultant was added with 2M KCl to a final concentration of 50 mM, left at 60° C. for 3 hours and then slowly cooled down to room temperature.
(§2) One day before the experiment, 190 μL of culture, wherein PC-3 cell line(prostate cancer cell) was suspended at a concentration of 10^3-10^4/mL, was inoculated respectively into each well of a 96 well plate. The next day, 10 μL of the oligonucleotide solution prepared in Example 1 was added and cultured for six days. Six days after the inoculation, cell apoptosis rate measured by means of XTT method [JBC 1999, 26369].

[2] = test system: mice; assay: Toxicity test in mice; type: in vivo; conditions: 1 g/kg administered, 10 mice/group, observed for the next 7 days
Procedure: Toxicity test was performed on the active ingredient of the present invention as follows.
Each of APT-2001, APT-2002 and APT-2003 was dissolved in dimethylsulfoxide (DMSO), diluted with water and then administered to mice (10 mice/group) in the amount of 1 g/kg.

[3] = test system: A549 (Non-small Cell Carcinoma Cells); assay: Cell apoptosis (XTT method) in A549 cells; type: cell-based
[4] = test system: MCF7-DX (Breast Cancer Cells), a drug-resistance cell line; assay: Cell apoptosis (XTT method) in MCF7-DX cells; type: cell-based
Procedure: [Worded in the source for another cell line; this cell line is reported under the same test.] as §1, §2
(§3) As a result, it was confirmed that the cell apoptosis rate of APT-2001, APT-2002 and APT-2003 (the novel modified oligonucleotides of the present invention), was 3-10 times higher than those of APT-4001 (positive control) and APT-4002 (negative control) as measured in terms of IC50 or IC90 (FIG. 2). […] In addition, the cell apoptotic activity of the oligonucleotides, prepared according to the present invention over the K562 CML (chronic myeloid leukemia), MV-4-11 AML (acute leukemia) cells, were also verified.

[5] = test system: MCF7 (Breast Cancer Cells); assay: Cell apoptosis (XTT method) in MCF7 cells; type: cell-based
Procedure: [Worded in the source for another cell line; this cell line is reported under the same test.] as §1, §2, §3

[6] = test system: HCT116 (Rectal Cancer Cells); assay: Cell apoptosis (XTT method) in HCT116 cells; type: cell-based
Procedure: [Worded in the source for another cell line; this cell line is reported under the same test.] as §1, §2, §3

[7] = test system: A498 (Kidney Cancer Cells); assay: Cell apoptosis (XTT method) in A498 cells; type: cell-based

Row | Substance | pIC50 [1] | cell apoptotic activity compared to APT-4001 (positive control) ([1]; even at a smaller amount than APT-4001, FIG. 3) | survival of mice [2] | pIC50 [3] | pIC50 [4] | pIC50 [5] | pIC50 [6] | pIC50 [7]
1 | APT-2002: NNNGGTGGTGGTGGTTGTGGTGGTGGTGG (SEQ. ID. NO. 2); N=5-F-deoxyuridine, G=2-deoxy-guanosine, H=thymidine (DNA UUUGGTGGTGGTGGTTGTGGTGGTGGTGG; DNA, [5FU] at 1, 2, 3, backbone not given here) | 5.59 | superior cell apoptotic activity | all mice survived | 5.28 | 6.22 | 5.05 | 5.68 | > 7.00
2 | APT-4002: Negative control, TTTCCTCCTCCTCCTTCTCCTCCTCCTCC (SEQ. ID. NO. 49); thymidine, 2′-deoxycytidine (DNA, backbone not given here) [reference compound] | < 4.30 |  |  | < 4.30 | < 4.30 |  | < 4.30 | < 4.30
